According to ChEMBL document CHEMBL1201862, “PubChem BioAssay data set” (2004):
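Exposure lasted 48 hours, with cells grown in 96-well plates and compounds tested at five concentrations. At the GI50, growth is halved.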 Active and inactive are the calls of the source. Cut-off read from the data, not from the text of the source: active = GI50 up to about 1.1 µM and inactive = higher.

Columns and labels:
Assay in all cases: inhibition of tumour cell growth, NCI panel, 48 h
KM12 = test system: KM12
UO-31 = test system: UO-31
A498 = test system: A498
SNB-75 = test system: SNB-75
T47D = test system: T47D
MCF7 = test system: MCF7
SK-OV-3 = test system: SK-OV-3
SN12C = test system: SN12C
OVCAR-5 = test system: OVCAR-5
Malme-3M = test system: Malme-3M
MOLT-4 = test system: MOLT-4
HOP-62 = test system: HOP-62
HL-60 = test system: HL-60
K562 = test system: K562
SK-MEL-28 = test system: SK-MEL-28
U-251 = test system: U-251
MDA-N = test system: MDA-N
OVCAR-3 = test system: OVCAR-3
OVCAR-4 = test system: OVCAR-4
COLO 205 = test system: COLO 205

Row | Structure (SMILES) | GI50 (KM12) | GI50 (UO-31) | GI50 (A498) | GI50 (SNB-75) | GI50 (T47D) | GI50 (MCF7) | GI50 (SK-OV-3) | GI50 (SN12C) | GI50 (OVCAR-5) | GI50 (Malme-3M) | GI50 (MOLT-4) | GI50 (HOP-62) | GI50 (HL-60) | GI50 (K562) | GI50 (SK-MEL-28) | GI50 (U-251) | GI50 (MDA-N) | GI50 (OVCAR-3) | GI50 (OVCAR-4) | GI50 (COLO 205)
1 | CCCCCCOc1ccc(NC2=C(Cl)C(=O)c3cccnc3C2=O)cc1 | 1.61 µM (inactive) | 1.14 µM (inactive) | > 10 µM (inactive) | 1 µM (active) | 1.62 µM (inactive) | 1.21 µM (inactive) | 4.35 µM (inactive) | 1.68 µM (inactive) | 2.4 µM (inactive) | 2.3 µM (inactive) | 1.87 µM (inactive) | 2.17 µM (inactive) | 1.15 µM (inactive) | 1.39 µM (inactive) | 2.13 µM (inactive) | 2.29 µM (inactive) | 1.59 µM (inactive) | 1.35 µM (inactive) |  | 
2 | Cn1c(=O)cc(NCCc2ccccc2)[nH]c1=O | 15.3 µM (inactive) | 34.1 µM (inactive) | 46 µM (inactive) | 19.9 µM (inactive) | 54.5 µM (inactive) | 19.7 µM (inactive) | 53.6 µM (inactive) | 23.3 µM (inactive) | > 100 µM (inactive) | 34.8 µM (inactive) | 35.2 µM (inactive) | 30 µM (inactive) | > 10 µM (inactive) | 19.1 µM (inactive) | 67.8 µM (inactive) | 61.1 µM (inactive) | 3.7 µM (inactive) | 16.1 µM (inactive) | > 100 µM (inactive) | 31.6 µM (inactive)
3 | OCC1CCCC(n2cnc3c(S)ncnc32)O1 (stereo not given) | > 100 µM (inactive) | > 100 µM (inactive) | > 100 µM (inactive) | > 100 µM (inactive) | > 100 µM (inactive) | > 100 µM (inactive) | > 100 µM (inactive) | > 100 µM (inactive) | > 100 µM (inactive) | > 100 µM (inactive) |  | > 100 µM (inactive) | 0.0252 µM (active) | > 100 µM (inactive) | > 100 µM (inactive) | > 100 µM (inactive) | > 100 µM (inactive) | > 100 µM (inactive) | > 100 µM (inactive) | > 100 µM (inactive)
4 | C=C1C(=O)OC2CC(C)C(/C=C/C(C)=O)=CCC12 (stereo not given) | > 100 µM (inactive) |  | > 100 µM (inactive) | 2.99 µM (inactive) | > 100 µM (inactive) | > 100 µM (inactive) | > 100 µM (inactive) | > 100 µM (inactive) | > 100 µM (inactive) | 10.7 µM (inactive) | 83 µM (inactive) | > 100 µM (inactive) | 33.1 µM (inactive) | 58.7 µM (inactive) | > 100 µM (inactive) | > 100 µM (inactive) | > 100 µM (inactive) | > 100 µM (inactive) | > 100 µM (inactive) | 90.6 µM (inactive)
5 | CCOC(=O)C1CCC(=O)N1C(=O)c1ccc(Cl)cc1 (stereo not given) | > 100 µM (inactive) | > 100 µM (inactive) | > 100 µM (inactive) | > 100 µM (inactive) | > 100 µM (inactive) | > 100 µM (inactive) |  | > 100 µM (inactive) | > 100 µM (inactive) | > 100 µM (inactive) | > 100 µM (inactive) | > 100 µM (inactive) | > 100 µM (inactive) | > 100 µM (inactive) | > 100 µM (inactive) | > 100 µM (inactive) | > 100 µM (inactive) | > 100 µM (inactive) |  | 
6 | N#CC(Cl)CS(=O)(=O)c1ccccc1 (stereo not given) | 17.5 µM (inactive) | 19.1 µM (inactive) | 13.6 µM (inactive) | 15.2 µM (inactive) | 2.85 µM (inactive) | 10.2 µM (inactive) | 19.5 µM (inactive) | 16.5 µM (inactive) | 20.3 µM (inactive) | 2.07 µM (inactive) | 1.34 µM (inactive) | > 44.6 µM (inactive) | 1.53 µM (inactive) | 1.97 µM (inactive) | 13.3 µM (inactive) | 19.3 µM (inactive) | 8.09 µM (inactive) | 2.71 µM (inactive) | 2.03 µM (inactive) | 1.75 µM (inactive)
7 | CC1(C)C2CC(=O)C1(C)C(OCc1ccccc1)C2 (stereo not given) | 60.8 µM (inactive) | 62.7 µM (inactive) | > 100 µM (inactive) | 34.2 µM (inactive) | 40.4 µM (inactive) | 64.7 µM (inactive) | 54.8 µM (inactive) | 36.6 µM (inactive) | 29.4 µM (inactive) | 32.9 µM (inactive) | 16.3 µM (inactive) | 86.1 µM (inactive) | 24.4 µM (inactive) | 22.2 µM (inactive) | 94.2 µM (inactive) | 48.3 µM (inactive) | 47.3 µM (inactive) | 62.7 µM (inactive) |  | 29.6 µM (inactive)
8 | CC(C)=CC1C(C(=O)Oc2ccccc2C(C)C)C1(C)C (stereo not given) | 18.1 µM (inactive) | 17.7 µM (inactive) | 19.7 µM (inactive) | 21.3 µM (inactive) | 19.8 µM (inactive) | 19.8 µM (inactive) | 31.6 µM (inactive) | 20.5 µM (inactive) | 27.1 µM (inactive) | 16.3 µM (inactive) |  | 27.9 µM (inactive) | 19.1 µM (inactive) | 25.8 µM (inactive) | 39.1 µM (inactive) | 16.7 µM (inactive) | 26.4 µM (inactive) | 17.8 µM (inactive) | 52 µM (inactive) | 
